From PubChem BioAssay (NCI) come the findings set out here.

Molecules are shown by their SMILES.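 A five-concentration, 48-hour dose response in 96-well plates underlies each endpoint, interpolated linearly between surrounding concentrations. GI50 = concentration required for 50% inhibition of growth. At the TGI there is no net growth.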

What all share (assay): NCI tumour cell line growth inhibition, 48 h
Experiment [1] deals with HCT-15 colon.
Experiment [2] has as its system MOLT-4 leukemia.
For experiment [3], the system named is ACHN renal.
The test system of experiment [4] is 786-0 renal.
Experiment [5] relates to OVCAR-8 ovarian.
Experiment [6] deals with OVCAR-4 ovarian.
Experiment [7] relates to HOP-92 NSCLC.
Experiment [8] concerns NCI-H23 lung.
Experiment [9] deals with MALME-3M melanoma.
The test system of experiment [10] is K-562 leukemia.

Turning to `CCN(CC)c1cc(/C=C/c2ccc(OC)c(OC)c2)nc2cc(F)c(F)cc12`, the GI50 in experiment [1] is 22.8 µM; in experiment [2], 14.2 µM; in [3], 2.56 µM; in experiment [4], 1.98 µM; in experiment [5], 5.54 µM; in experiment [6], 27 µM. Moreover, the GI50 is 1.68 µM in [7] and 4.06 µM in [8]. For the same compound, the TGI in experiment [1] was over 100 µM; in experiment [2], 33.6 µM; in [3] it was 9.76 µM; in experiment [4], 4.77 µM; in experiment [5], 80.8 µM; in experiment [6], over 100 µM. In addition, the values for the TGI in experiment [7] and in experiment [8] were 4.74 µM and 14 µM, respectively.

For the compound `CSc1cnn(CCC#N)c(=O)n1`, the TGI in [9], in experiment [2], in [3], in experiment [4], in experiment [5] and in experiment [10] was over 100 µM throughout. The same compound showed a TGI in experiment [8] of over 100 µM.

Consider `Cc1cccc(Oc2nccc(-c3c(-c4ccc(F)cc4)ncn3C3CCNCC3)n2)c1C`, for which the GI50 was 8.12 µM in experiment [1]; 4.68 µM in experiment [9]; 7.17 µM in experiment [2]; 6.11 µM in experiment [3]; 8.22 µM in [4]; 10.7 µM in [5]. The GI50 was 5.68 µM in [10] and 7.9 µM in experiment [6]. Also, the TGI in [1] was over 25 µM; in experiment [9], 9.58 µM; in experiment [2] it was 17.6 µM; in experiment [3], over 25 µM; in [4], over 18 µM; in experiment [5], over 23.5 µM. For the same compound, the TGI is 16 µM in experiment [10] and over 25 µM in experiment [6].

In the case of `CN1CCCNc2c(c(=O)c2=O)NCCCN(C)CCCNc2c(c(=O)c2=O)NCCCN(C)CCCNc2c(c(=O)c2=O)NCCCN(C)CCCNc2c(c(=O)c2=O)NCCCN(C)CCCNc2c(c(=O)c2=O)NCCCN(C)CCCNc2c(c(=O)c2=O)NCCCN(C)CCCNc2c(c(=O)c2=O)NCCC1`, the GI50 is 5.19 µM in [1]; 1.11 µM in experiment [9]; 9.7 µM in experiment [2]; 1.66 µM in experiment [3]; 4.29 µM in experiment [4]; 2.48 µM in [5]. Moreover, the GI50 in experiment [6] was 2.98 µM. Further, the TGI in [1] is 22.5 µM; in experiment [9], 3.54 µM; in [2] it was 45.2 µM; in [3], 6.87 µM; in [4] it was 15.1 µM; in [5], 46.8 µM. The TGI in experiment [6] came out at 16.7 µM.

On to `CC1=CC(=O)CCC2(C)C1CC[C@@H]2OC=O` (stereo partly drawn), for which the TGI in experiment [2], in [3], in [4], in experiment [5], in [10] and in [6] was over 100 µM throughout. In addition, the TGI in [7] and in experiment [8] was over 100 µM throughout.

Regarding `Cn1c2c(c3ccccc31)C1CCCCC1C1C(=O)NC(=O)C21` (stereo not drawn), the TGI in experiment [1] is over 100 µM; in experiment [9] it was over 100 µM; in experiment [2], 67.5 µM; in experiment [3], over 100 µM; in [4], over 100 µM; in experiment [5], over 100 µM. Moreover, the TGI in [10], in experiment [6] and in experiment [8] was over 100 µM throughout.

Turning to `COc1ccccc1-n1c(-c2cc(O)ccc2C)cn2c3c(=O)[nH]c(=O)n(C)c3nc12`, the GI50 in experiment [1] is 54.7 µM; in experiment [9] it was over 100 µM; in experiment [2] it was 85.9 µM; in experiment [3] it was 1.99 µM; in experiment [4] it was 6.24 µM; in [5] it was 10.9 µM. Also, the results for the GI50 in experiment [10], in [6] and in experiment [8] were 0.31 µM, over 100 µM and 60.9 µM, respectively. Further, the TGI is over 100 µM in [1]; over 100 µM in [9]; over 100 µM in experiment [2]; 63.5 µM in experiment [3]; over 100 µM in [4]; over 100 µM in [5]. The TGI in experiment [10], in experiment [6] and in experiment [8] was over 100 µM throughout.

For `O=C(OCc1ccccc1)N1CCN(/[N+]([O-])=N/Oc2ccc([N+](=O)[O-])cc2[N+](=O)[O-])CC1`, the GI50 in [1] was 4.19 µM; in [2], 4.47 µM; in [3] it was 7.12 µM; in experiment [4], 2.45 µM; in experiment [5], 31.5 µM; in experiment [10] it was 4.07 µM. In addition, the GI50 in experiment [8] was 6.45 µM. Besides, the TGI was 52.6 µM in experiment [1]; over 100 µM in experiment [2]; 26.6 µM in experiment [3]; 6.97 µM in experiment [4]; over 100 µM in experiment [5]; over 100 µM in [10]. The TGI in experiment [8] was 44.8 µM.

With `CCC(C)n1cc(C)c2c(C(=O)NCc3c(C)cc(C)[nH]c3=O)cc(Br)cc21` (stereo not drawn), the GI50 is 29 µM in experiment [1]; 36.2 µM in experiment [9]; 26.2 µM in [2]; 46.1 µM in [3]; over 100 µM in experiment [4]; 63.7 µM in experiment [5]. The GI50 in [10] is 34.6 µM; in experiment [6], 37.2 µM; in [8], 76.3 µM. Further, the TGI is over 100 µM in [1]; 99.7 µM in experiment [9]; 71.6 µM in [2]; over 100 µM in [3]; over 100 µM in experiment [4]; over 100 µM in experiment [5]. Further, the TGI in [10], in experiment [6] and in [8] was over 100 µM throughout.

As for `CCCCCCCCCCCCCCCCCC1=NCCN1CS(=O)(=O)O`, the GI50 was 4.49 µM in experiment [1]; 10.2 µM in experiment [2]; 13 µM in experiment [3]; 17.7 µM in experiment [4]; 20.4 µM in experiment [5]; 3.93 µM in [10]. In addition, the results for the GI50 in [6], in [7] and in experiment [8] were 14.9 µM, 7.82 µM and 15.4 µM, respectively. In addition, the TGI is 23.5 µM in [1]; 38.6 µM in experiment [2]; 28.8 µM in experiment [3]; 35.3 µM in experiment [4]; 48.9 µM in experiment [5]; over 100 µM in experiment [10]. The TGI is 33 µM in experiment [6], 26.2 µM in experiment [7] and 33.4 µM in experiment [8].
